Experimental data as given in the NIST ThermoML archive (doi:10.1016/j.jct.2015.08.014).

Assay: xn = mol fraction of the nth substance listed
Conditions: 273.15 K, 100 kPa, Liquid; for electrical conductivity: Alternating current cell with electrodes; for viscosity: Capillary tube (Ostwald / Ubbelohde) method

CCCC[N+]1(C)CCCC1.N#CN=C=[N-] [1-butyl-1-methylpyrrolidinium dicyanamide] + O=C1CCCO1
Conditions | electrical conductivity [S/m] | viscosity [mPa·s]
x1 = 0.0463 | 0.977 | –
x1 = 0.0987 | 1.43 | 4.69
x1 = 0.1449 | 1.56 | –
x1 = 0.1859 | 1.634 | 7.2
x1 = 0.2493 | 1.517 | –
x1 = 0.3029 | 1.42 | 12.03
x1 = 0.3845 | 1.25 | –
x1 = 0.4985 | 1.03 | 24.9
x1 = 0.6954 | 0.742 | 45.65
x1 = 0.9013 | 0.562 | 76.07
x1 = 1 | 0.523 | 93.95

electrical conductivity [S/m]
Conditions | Frequency=0.0005 MHz | Frequency=0.001 MHz | Frequency=0.0015 MHz | Frequency=0.002 MHz | Frequency=0.0025 MHz | Frequency=0.003 MHz | Frequency=0.00347222 MHz | Frequency=0.004 MHz | Frequency=0.00446429 MHz
x1 = 0.0463 | 0.97 | 0.973 | 0.975 | 0.975 | 0.976 | 0.976 | 0.977 | 0.977 | 0.977
x1 = 0.0987 | 1.41 | 1.42 | 1.42 | 1.42 | 1.42 | 1.42 | 1.42 | 1.42 | –
x1 = 0.1449 | 1.56 | 1.56 | 1.56 | 1.56 | 1.56 | 1.56 | 1.56 | 1.56 | –
x1 = 0.1859 | 1.619 | 1.625 | 1.627 | 1.629 | 1.63 | 1.631 | 1.632 | 1.632 | –
x1 = 0.2493 | 1.513 | 1.515 | 1.515 | 1.516 | 1.516 | 1.516 | 1.516 | 1.516 | –
x1 = 0.3029 | 1.42 | 1.42 | 1.42 | 1.42 | 1.42 | 1.42 | 1.42 | 1.42 | –
x1 = 0.3845 | 1.25 | 1.25 | 1.25 | 1.25 | 1.25 | 1.25 | 1.25 | 1.25 | –
x1 = 0.4985 | 1.03 | 1.03 | 1.03 | 1.03 | 1.03 | 1.03 | 1.03 | 1.03 | –
x1 = 0.6954 | 0.741 | 0.741 | 0.741 | 0.742 | 0.742 | 0.742 | 0.742 | 0.742 | –
x1 = 0.9013 | 0.561 | 0.561 | 0.562 | 0.562 | 0.562 | 0.562 | 0.562 | 0.562 | –
x1 = 1 | 0.522 | 0.522 | 0.522 | 0.522 | 0.522 | 0.522 | 0.523 | 0.523 | –
